The target in experiment [1] is Nuclear receptor subfamily 5 group A member 2 (Homo sapiens) (UniProt O00482).
For experiment [2], the target named is Steroidogenic factor 1 (Homo sapiens) (UniProt Q13285). Put plainly: Agonist activity at recombinant full length SF1 (unknown origin) transfected in human HeLa cells incubated for 24 hrs by renilla luciferase reporter gene assay. In kind it is cell-based.
Experiment [3] deals with Nuclear receptor subfamily 5 group A member 2 (Homo sapiens), O00482 [M345L]. In words: Activation of human full length LRH1 M345L mutant transfected in human HeLa cells at 10 uM incubated for 24 hrs by renilla luciferase reporter gene assay. In kind it is cell-based. A general note: In a reporter assay the amount or activity of a reporter protein is the signal.
Nuclear receptor subfamily 5 group A member 2 (Homo sapiens), O00482 [M345L], sequence (O00482 whole entry M345L): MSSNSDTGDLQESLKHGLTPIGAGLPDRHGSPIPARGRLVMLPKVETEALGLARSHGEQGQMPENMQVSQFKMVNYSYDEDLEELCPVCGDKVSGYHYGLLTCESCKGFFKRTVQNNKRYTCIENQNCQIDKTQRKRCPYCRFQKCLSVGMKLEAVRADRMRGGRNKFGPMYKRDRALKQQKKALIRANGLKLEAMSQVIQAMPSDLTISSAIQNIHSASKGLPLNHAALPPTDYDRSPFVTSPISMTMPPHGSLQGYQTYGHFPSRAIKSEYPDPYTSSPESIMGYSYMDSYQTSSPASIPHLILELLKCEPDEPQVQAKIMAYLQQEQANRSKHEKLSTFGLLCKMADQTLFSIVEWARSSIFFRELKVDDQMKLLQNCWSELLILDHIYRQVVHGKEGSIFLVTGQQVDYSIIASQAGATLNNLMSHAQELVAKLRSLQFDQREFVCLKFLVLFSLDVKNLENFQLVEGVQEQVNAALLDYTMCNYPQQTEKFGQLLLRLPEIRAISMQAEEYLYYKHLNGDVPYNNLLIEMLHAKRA
For experiment [4], the system named is Nuclear receptor subfamily 5 group A member 2 (Homo sapiens), O00482 [H390A]. In words: Activation of human full length LRH1 H390A mutant transfected in human HeLa cells at 10 uM incubated for 24 hrs by renilla luciferase reporter gene assay. In kind it is cell-based.
Nuclear receptor subfamily 5 group A member 2 (Homo sapiens), O00482 [H390A], sequence (O00482 whole entry H390A): as the sequence (O00482 whole entry M345L) above, with L345M, H390A counted along it
Experiment [5] deals with Nuclear receptor subfamily 5 group A member 2 (Homo sapiens), O00482 [T352V]. Put plainly: Activation of human full length LRH1 T352V mutant transfected in human HeLa cells at 10 uM incubated for 24 hrs by renilla luciferase reporter gene assay. The format is cell-based.
Nuclear receptor subfamily 5 group A member 2 (Homo sapiens), O00482 [T352V], sequence (O00482 whole entry T352V): as the sequence (O00482 whole entry M345L) above, with L345M, T352V counted along it
The species named for experiment [6] is Mus musculus. In words: Effect on Cyp11b1 mRNA expression in LRH1 knock-out mouse enteroids at 1 uM pretreated with TNF-alpha followed incubation with compound for overnight by real-time PCR analysis. In kind it is functional.
Experiment [7] is filed under the species Mus musculus. In words: Effect on Cyp11a1 mRNA expression in LRH1 knock-out mouse enteroids at 1 uM pretreated with TNF-alpha followed incubation with compound for overnight by real-time PCR analysis. In kind it is functional.

Activity calls are given as the source filed them. No cut-off for these calls is given here.

These results are taken from ChEMBL document CHEMBL4321799, “Development of the First Low Nanomolar Liver Receptor Homolog-1 Agonist through Structure-guided Design” (J Med Chem, 2019).

Steroidogenic factor 1 (Homo sapiens), sequence (Q13285 whole entry): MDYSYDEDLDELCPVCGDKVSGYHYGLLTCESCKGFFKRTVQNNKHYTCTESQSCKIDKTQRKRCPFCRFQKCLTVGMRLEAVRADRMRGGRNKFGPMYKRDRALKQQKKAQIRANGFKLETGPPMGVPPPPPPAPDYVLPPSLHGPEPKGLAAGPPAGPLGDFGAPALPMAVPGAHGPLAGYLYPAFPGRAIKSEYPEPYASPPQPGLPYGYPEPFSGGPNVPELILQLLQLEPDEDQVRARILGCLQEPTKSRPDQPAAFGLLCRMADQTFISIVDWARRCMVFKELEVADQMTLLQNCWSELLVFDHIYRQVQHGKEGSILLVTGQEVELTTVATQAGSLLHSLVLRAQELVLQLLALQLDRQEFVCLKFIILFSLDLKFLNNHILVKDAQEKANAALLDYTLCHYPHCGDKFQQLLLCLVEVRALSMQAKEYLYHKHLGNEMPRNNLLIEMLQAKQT
Nuclear receptor subfamily 5 group A member 2 (Homo sapiens), sequence (O00482 whole entry): as the sequence (O00482 whole entry M345L) above, with L345M counted along it

For the compound `C=C(c1ccccc1)[C@@]12CC[C@H](OS(N)(=O)=O)[C@@H]1CC(CCCCCC)=C2c1ccccc1` (racemic), in experiment [1], the thermal shift (ΔTm) (commonly the change in melting temperature against a reference sample) lay in the range of 3 to 8 °C. Also, the result in experiment [2] was Active.
With `C=C(c1ccccc1)[C@@]12CC[C@H](n3ccnn3)[C@@H]1CC(CCCCCC)=C2c1ccccc1` (racemic), the ΔTm in experiment [1] is 3 to 8 °C.
In the case of `C=C(c1ccccc1)[C@@]12CC[C@@H](O)[C@@H]1CC(CCCCCC)=C2c1ccccc1`, the outcome in experiment [2] was Active.
As to `C=C(c1ccccc1)[C@@]12CC[C@H](NC(C)=O)[C@@H]1CC(CCCCCC)=C2c1ccccc1` (racemic), the result in experiment [3] and in experiment [5] was Active. In addition, the outcome in experiment [4] and in experiment [2] was inactive.
In the case of `C=C(c1ccccc1)[C@@]12CC[C@H](NS(N)(=O)=O)[C@@H]1CC(CCCCCC)=C2c1ccccc1` (racemic), the outcome in the experiment filed under Mus musculus [6] and in the experiment filed under Mus musculus [7] was inactive. The outcome in experiment [2] was Active.
`C=C(c1ccccc1)[C@@]12CC[C@H](OS(=O)(=O)NC(N)=O)[C@@H]1CC(CCCCCC)=C2c1ccccc1` (racemic): in experiment [1], the ΔTm was in the range of 3 to 8 °C.
As to `C=C(c1ccccc1)[C@@]12CC[C@@H](OS(N)(=O)=O)[C@@H]1CC(CCCCCC)=C2c1ccccc1` (racemic), the ΔTm in experiment [1] lay within 3 to 8 °C.
